Reference: patent publication US8952157B2, “Apoptosis-inducing agents for the treatment of cancer and immune and autoimmune diseases” (AbbVie Inc., priority 2008, dated 2015)

What follows are molecules tested against GST-Bcl-2 (Homo sapiens (Human), UniProt P10415) (assay: Time Resolved-Fluorescence Resonance Energy Transfer (TR-FRET) Bcl-2 binding assay). Settings: not given.
Procedure, shortened: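 Ki values derived from TR-FRET displacement of F-Bak peptide from GST-Bcl-2, detected with Tb-labelled anti-GST antibody (ex 340, em 520/495 nm). Compound dilution series started at 50 μM (2× starting concentration); room-temperature incubation 3 hours.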

GST-Bcl-2, sequence (P10415 whole entry): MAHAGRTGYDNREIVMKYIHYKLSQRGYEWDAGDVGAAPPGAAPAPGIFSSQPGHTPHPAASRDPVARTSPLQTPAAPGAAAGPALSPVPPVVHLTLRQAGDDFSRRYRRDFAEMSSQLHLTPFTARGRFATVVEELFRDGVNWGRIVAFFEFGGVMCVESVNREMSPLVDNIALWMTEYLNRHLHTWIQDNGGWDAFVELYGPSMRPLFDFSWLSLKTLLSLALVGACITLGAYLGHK

| Compound | Ki |
| --- | --- |
| CC1(C)CC(c2ccc(Cl)cc2)=C(CN2CCN(c3ccc(C(=O)NS(=O)(=O)c4ccc(N[C@H]5CC[C@H](N6CCOCC6)CC5)c([N+](=O)[O-])c4)c(Oc4cc5cc[nH]c5cc4Cl)c3)CC2)CO1 [Example 294, Trans-2-[(6-chloro-1H-indol-5-yl)oxy]-4-(4-{[4-(4-chlorophenyl)-6,6-dimethyl-5,6-dihydro-2H-pyran-3-yl]methyl}piperazin-1-yl)-N-({4-[(4-morpholin-4-ylcyclohexyl)amino]-3-nitrophenyl}sulfonyl)benzamide] | 0.127 nM |

Same assay, conditions: GST-Bcl-2 1 nM, F-Bak peptide probe 100 nM, Tb-anti-GST antibody 1 nM; Ki by Wang's equation

| Compound | Ki |
| --- | --- |
| CC1(C)CCC(CN2CCN(c3ccc(C(=O)NS(=O)(=O)c4cnc(OCC5CCC(F)(F)CC5)c(Cl)c4)c(Oc4cnc(N)c(Cl)c4)c3)CC2)=C(c2ccc(Cl)cc2)C1 [Example 409, 2-[(6-amino-5-chloropyridin-3-yl)oxy]-N-({5-chloro-6-[(4,4-difluorocyclohexyl)methoxy]pyridin-3-yl}sulfonyl)-4-(4-{[2-(4-chlorophenyl)-4,4-dimethylcyclohex-1-en-1-yl]methyl}piperazin-1-yl)benzamide] | 0.686 nM |
| CC1(C)CCC(CN2CCN(c3ccc(C(=O)NS(=O)(=O)c4ccc(NCCCN5CCOCC5)c([N+](=O)[O-])c4)c(Oc4cccc(F)c4F)c3)CC2)=C(c2ccc(Cl)cc2)C1 [Example 51, 4-(4-((2-(4-chlorophenyl)-4,4-dimethylcyclohex-1-en-1-yl)methyl)piperazin-1-yl)-2-(2,3-difluorophenoxy)-N-((4-((3-morpholin-4-ylpropyl)amino)-3-nitrophenyl)sulfonyl)benzamide] | 0.066 nM |
| CC1(C)CCC(CN2CCN(c3ccc(C(=O)NS(=O)(=O)c4ccc(NC5CCN(C6CC6)CC5)c([N+](=O)[O-])c4)c(Oc4cnc(N)c(Cl)c4)c3)CC2)=C(c2ccc(Cl)cc2)C1 [Example 358, 2-[(6-amino-5-chloropyridin-3-yl)oxy]-4-(4-{[2-(4-chlorophenyl)-4,4-dimethylcyclohex-1-en-1-yl]methyl}piperazin-1-yl)-N-({4-[(1-cyclopropylpiperidin-4-yl)amino]-3-nitrophenyl}sulfonyl)benzamide] | 0.062 nM |
| CC1(C)CCC(CN2CCN(c3ccc(C(=O)NS(=O)(=O)c4ccc(NCC5CCOCC5)c([N+](=O)[O-])c4)c(Oc4ccc(N)nc4)c3)CC2)=C(c2ccc(Cl)cc2)C1 [Example 272, 2-[(6-aminopyridin-3-yl)oxy]-4-(4-{[2-(4-chlorophenyl)-4,4-dimethylcyclohex-1-en-1-yl]methyl}piperazin-1-yl)-N-({3-nitro-4-[(tetrahydro-2H-pyran-4-ylmethyl)amino]phenyl}sulfonyl)benzamide] | 1.24 nM |
| CC1(C)CCC(CN2CCN(c3ccc(C(=O)NS(=O)(=O)c4ccc(NCC5CCOCC5)c([N+](=O)[O-])c4)c(Oc4ccccc4-c4cccnc4N)c3)CC2)=C(c2ccc(Cl)cc2)C1 [Example 407, 2-[2-(2-aminopyridin-3-yl)phenoxy]-4-(4-{[2-(4-chlorophenyl)-4,4-dimethylcyclohex-1-en-1-yl]methyl}piperazin-1-yl)-N-({3-nitro-4-[(tetrahydro-2H-pyran-4-ylmethyl)amino]phenyl}sulfonyl)benzamide] | 0.946 nM |
| CN1CCN(Nc2ccc(S(=O)(=O)NC(=O)c3ccc(N4CCN(CC5=C(c6ccc(Cl)cc6)CC(C)(C)CC5)CC4)cc3Oc3cccc4c3CC(=O)N4)cc2[N+](=O)[O-])CC1 [Example 287, 4-(4-{[2-(4-chlorophenyl)-4,4-dimethylcyclohex-1-en-1-yl]methyl}piperazin-1-yl)-N-({4-[(4-methylpiperazin-1-yl)amino]-3-nitrophenyl}sulfonyl)-2-[(2-oxo-2,3-dihydro-1H-indol-4-yl)oxy]benzamide] | 0.131 nM |
| CC1(C)CCC(CN2CCN(c3ccc(C(=O)NS(=O)(=O)c4ccc(OCC5(F)CCN(C(CF)CF)CC5)c([N+](=O)[O-])c4)c(Oc4cnc(N)c(Cl)c4)c3)CC2)=C(c2ccc(Cl)cc2)C1 [Example 371, 2-[(6-amino-5-chloropyridin-3-yl)oxy]-4-(4-{[2-(4-chlorophenyl)-4,4-dimethylcyclohex-1-en-1-yl]methyl}piperazin-1-yl)-N-{[4-({4-fluoro-1-[2-fluoro-1-(fluoromethyl)ethyl]piperidin-4-yl}methoxy)-3-nitrophenyl]sulfonyl}benzamide] | < 0.01 nM |
| CC(=O)Nc1ccc(Oc2cc(N3CCN(CC4=C(c5ccc(Cl)cc5)CC(C)(C)CC4)CC3)ccc2C(=O)NS(=O)(=O)c2ccc(NCC3CCOCC3)c([N+](=O)[O-])c2)cn1 [Example 355, 2-{[6-(acetylamino)pyridin-3-yl]oxy}-4-(4-{[2-(4-chlorophenyl)-4,4-dimethylcyclohex-1-en-1-yl]methyl}piperazin-1-yl)-N-({3-nitro-4-[(tetrahydro-2H-pyran-4-ylmethyl)amino]phenyl}sulfonyl)benzamide] | 9.57 nM |
| CN1CCC(Nc2ccc(S(=O)(=O)NC(=O)c3ccc(N4CCN(CC5=C(c6ccc(Cl)cc6)CC(C)(C)CC5)CC4)cc3Oc3ccccc3F)cc2[N+](=O)[O-])CC1 [Example 122, 4-(4-{[2-(4-chlorophenyl)-4,4-dimethylcyclohex-1-en-1-yl]methyl}piperazin-1-yl)-2-(2-fluorophenoxy)-N-({4-[(1-methylpiperidin-4-yl)amino]-3-nitrophenyl}sulfonyl)benzamide] | < 0.001 nM |
| CC1(C)CCC(CN2CCN(c3ccc(C(=O)NS(=O)(=O)c4ccc(NCC5CCOCC5)c([N+](=O)[O-])c4)c(Oc4ccc5[nH]cc(CCN)c5c4)c3)CC2)=C(c2ccc(Cl)cc2)C1 [Example 299, 2-{[3-(2-aminoethyl)-1H-indol-5-yl]oxy}-4-(4-{[2-(4-chlorophenyl)-4,4-dimethylcyclohex-1-en-1-yl]methyl}piperazin-1-yl)-N-({3-nitro-4-[(tetrahydro-2H-pyran-4-ylmethyl)amino]phenyl}sulfonyl)benzamide] | 51.7 nM |
| CC1(C)CCC(CN2CCN(c3ccc(C(=O)NS(=O)(=O)c4ccc(NCC5COCCO5)c([N+](=O)[O-])c4)c(Oc4cc5cc[nH]c5cc4Cl)c3)CC2)=C(c2ccc(Cl)cc2)C1 (stereo not shown) [Example 291, 2-[(6-chloro-1H-indol-5-yl)oxy]-4-(4-{[2-(4-chlorophenyl)-4,4-dimethylcyclohex-1-en-1-yl]methyl}piperazin-1-yl)-N-({4-[(1,4-dioxan-2-ylmethyl)amino]-3-nitrophenyl}sulfonyl)benzamide] | 0.273 nM |
| CC1(C)CC(c2ccc(Cl)cc2)=C(CN2CCN(c3ccc(C(=O)NS(=O)(=O)c4ccc(NCC5CCOCC5)c([N+](=O)[O-])c4)c(Oc4cnc(N)c(Cl)c4)c3)CC2)CO1 [Example 387, 2-[(6-amino-5-chloropyridin-3-yl)oxy]-4-(4-{[4-(4-chlorophenyl)-6,6-dimethyl-5,6-dihydro-2H-pyran-3-yl]methyl}piperazin-1-yl)-N-({3-nitro-4-[(tetrahydro-2H-pyran-4-ylmethyl)amino]phenyl}sulfonyl)benzamide] | < 0.01 nM |
| CN(C)CCCNc1ccc(S(=O)(=O)NC(=O)c2ccc(N3CCN(CC4=C(c5ccc(Cl)cc5)CC(C)(C)CC4)CC3)cc2Oc2cccc(F)c2)cc1[N+](=O)[O-] [Example 138, 4-(4-{[2-(4-chlorophenyl)-4,4-dimethylcyclohex-1-en-1-yl]methyl}piperazin-1-yl)-N-[(4-{[3-(dimethylamino)propyl]amino}-3-nitrophenyl)sulfonyl]-2-(3-fluorophenoxy)benzamide] | 0.016 nM |
| Cc1n[nH]c2cccc(Oc3cc(N4CCN(CC5=C(c6ccc(Cl)cc6)CC(C)(C)CC5)CC4)ccc3C(=O)NS(=O)(=O)c3ccc(NC4CCN(C)CC4)c([N+](=O)[O-])c3)c12 [Example 55, 4-(4-((2-(4-chlorophenyl)-4,4-dimethylcyclohex-1-en-1-yl)methyl)piperazin-1-yl)-2-((3-methyl-1H-indazol-4-yl)oxy)-N-((4-((1-methylpiperidin-4-yl)amino)-3-nitrophenyl)sulfonyl)benzamide] | 0.09 nM |
| CC1(C)CCC(CN2CCN(c3ccc(C(=O)NS(=O)(=O)c4ccc(NC5CCN(C6CCCC6)CC5)c([N+](=O)[O-])c4)c(Oc4cccc(F)c4F)c3)CC2)=C(c2ccc(Cl)cc2)C1 [Example 133, 4-(4-{[2-(4-chlorophenyl)-4,4-dimethylcyclohex-1-en-1-yl]methyl}piperazin-1-yl)-N-({4-[(1-cyclopentylpiperidin-4-yl)amino]-3-nitrophenyl}sulfonyl)-2-(2,3-difluorophenoxy)benzamide] | 0.055 nM |
| CC1(C)CCC(CN2CCN(c3ccc(C(=O)NS(=O)(=O)c4cnc(OCC5CCOCC5)c(Cl)c4)c(Oc4cc5cc[nH]c5cc4F)c3)CC2)=C(c2ccc(Cl)cc2)C1 [Example 303, 4-(4-{[2-(4-chlorophenyl)-4,4-dimethylcyclohex-1-en-1-yl]methyl}piperazin-1-yl)-N-{[5-chloro-6-(tetrahydro-2H-pyran-4-ylmethoxy)pyridin-3-yl]sulfonyl}-2-[(6-fluoro-1H-indol-5-yl)oxy]benzamide] | 0.092 nM |
| CN1CCC(Nc2ccc(S(=O)(=O)NC(=O)c3ccc(N4CCN(CC5=C(c6ccc(Cl)cc6)CC(C)(C)CC5)CC4)cc3Oc3cccc(O)c3)cc2[N+](=O)[O-])CC1 [Example 176, 4-(4-{[2-(4-chlorophenyl)-4,4-dimethylcyclohex-1-en-1-yl]methyl}piperazin-1-yl)-2-(3-hydroxyphenoxy)-N-({4-[(1-methylpiperidin-4-yl)amino]-3-nitrophenyl}sulfonyl)benzamide] | 0.24 nM |
| CC1(C)CCC(CN2CCN(c3ccc(C(=O)NS(=O)(=O)c4ccc(NCC5CCOCC5)c([N+](=O)[O-])c4)c(Oc4cnc(N)c(Br)c4)c3)CC2)=C(c2ccc(Cl)cc2)C1 [Example 350, 2-[(6-amino-5-bromopyridin-3-yl)oxy]-4-(4-{[2-(4-chlorophenyl)-4,4-dimethylcyclohex-1-en-1-yl]methyl}piperazin-1-yl)-N-({3-nitro-4-[(tetrahydro-2H-pyran-4-ylmethyl)amino]phenyl}sulfonyl)benzamide] | < 0.01 nM |
